Assay results reported in publication doi:10.1101/2020.10.25.354381v1, “Multi-dimensional digital bioassay platform based on an air-sealed femtoliter reactor array device” (biorxiv, 2020).

Experiments:
[1] = tested on: T1, CiALP (calf intestinal ALP); assay: fluorogenic ALP assay, bulk microtiter plate, Hill fit; format: biochemical, Bos taurus; conditions: […] 4-MUP, […] DEA-HCl, […] MgCl2, […] ZnSO4, pH […] TWEEN20, […] °C; […] min preincubation
T1 construct: gene ALPI; homodimeric metalloenzyme

[2] = target: T2, EcALP (D101S, an active mutant of Escherichia coli ALP) (Escherichia coli, UniProt P00634, D123S); assay: as above; format: biochemical; conditions: […] 4-MUP, […] DEA-HCl, […] MgCl2, […] ZnSO4, pH […] TWEEN20, […] °C; […] min preincubation; diluted cell-free synthesis mixture
T2 construct: gene phoA; D101S mutant, cell-free synthesis (PURExpress with disulfide bond enhancer), not purified; homodimeric metalloenzyme
T2 sequence (P00634 22-471 D123S): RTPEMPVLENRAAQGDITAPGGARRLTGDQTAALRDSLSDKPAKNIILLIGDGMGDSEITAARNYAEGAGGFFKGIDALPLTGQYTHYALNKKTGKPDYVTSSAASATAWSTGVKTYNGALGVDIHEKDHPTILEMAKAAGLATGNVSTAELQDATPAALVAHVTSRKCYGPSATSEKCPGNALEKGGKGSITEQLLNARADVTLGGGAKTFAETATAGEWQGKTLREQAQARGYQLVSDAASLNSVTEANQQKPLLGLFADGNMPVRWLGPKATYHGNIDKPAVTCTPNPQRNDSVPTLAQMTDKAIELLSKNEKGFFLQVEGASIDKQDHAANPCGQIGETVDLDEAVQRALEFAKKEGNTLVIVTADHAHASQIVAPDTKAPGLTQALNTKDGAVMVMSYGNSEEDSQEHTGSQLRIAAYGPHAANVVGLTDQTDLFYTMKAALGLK

SMILES | IC50 [1] | IC50 [2]
O=P(O)(O)O [Pi, phosphate] | 1600 µM | –
[O]=[V]([OH])([OH])[OH] [V, vanadate] | 200 µM | 7800 µM
